{"source": "patent US8999940B2", "about": "(Ipsen Pharma S.A.S., priority 2008, dated 2015)", "key": {"[1]": {"assay": "Rat plasma half-life assay", "assay_type": "in vitro ADME", "conditions": "37° C., LC-MS, read-out: Rat Plasma T½ (converted)", "description": "(§1) B. Human and Rat Plasma Half-Life Assay\n(§2) 50 μl was removed at various times, like at 0, 1, 2, 3, 4, 8, 24, 32, 48, 56, 72 hours, mixed with 5 μl formic acid and 150 μL acetonitrile in a microcentrifuge tube, vertexed, and centrifuged for 10 minutes at 10 K rpm. The supernatant was transferred to an injection vial and analyzed by LC-MS. The LC-MS system consisted of an API4000 mass spectrometer with an ESI probe. Positive ion mode and full scan detection were used. HPLC separation was carried out on a Luna 3μ. C8 (2), 2×30 mm column with a gradient from 90% A to 90% B in 10 minutes at a flow rate of 0.3 ml/min. Buffer A was 1% formic acid in water and buffer B was 1% formic acid acetonitrile."}, "[2]": {"assay": "Human plasma half-life assay", "assay_type": "in vitro ADME", "conditions": "37° C., LC-MS, read-out: Human Plasma T½ (converted)", "description": "as §1, §2"}, "[3]": {"target": "T1, human recombinant GIP receptor (Homo sapiens, UniProt P48546)", "T1 construct": "expressed in transfected cells; host or cells: CHO-K1 clonal cells (membrane preparation)", "T1 sequence (P48546 22-466)": "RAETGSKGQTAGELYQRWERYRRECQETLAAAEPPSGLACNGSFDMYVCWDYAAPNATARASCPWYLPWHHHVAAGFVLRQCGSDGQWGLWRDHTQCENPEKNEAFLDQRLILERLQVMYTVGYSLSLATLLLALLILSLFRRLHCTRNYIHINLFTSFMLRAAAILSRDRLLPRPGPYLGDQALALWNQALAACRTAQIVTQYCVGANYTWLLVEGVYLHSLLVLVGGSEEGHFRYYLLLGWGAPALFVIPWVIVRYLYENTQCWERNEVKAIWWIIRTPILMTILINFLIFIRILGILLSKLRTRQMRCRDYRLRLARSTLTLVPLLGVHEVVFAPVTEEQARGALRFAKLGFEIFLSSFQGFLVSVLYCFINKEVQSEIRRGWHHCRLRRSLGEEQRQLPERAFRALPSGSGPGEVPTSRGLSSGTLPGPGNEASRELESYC", "assay": "In vitro hGIP receptor binding assay", "description": "A. In Vitro hGIP Receptor Binding Assay […] The incubations were terminated by rapid filtration through GF/C filters (pre-soaked in 0.5% polyethylenimine) using a Brandel filtration manifold. Each tube and filter were then washed three times with 5-ml aliquots of ice-cold buffer."}}, "note": "Where two headings read alike, the source gives them in different places. Where a SMILES comes first, the peptide text is derived from it. Where no end group is shown, it is not given here. [ ]: non-standard residue; d: D form. The star is where a group is joined. Tyr(3-OMe) = COc1cc(C[C@H](N)C(=O)O)ccc1O; Tic(7-OH) = O=C(O)[C@@H]1Cc2ccc(O)cc2CN1; Desaminotyrosyl = O=C(CCc1ccc(O)cc1)*; Hyp = O=C(O)[C@@H]1C[C@@H](O)CN1; Ac6c = NC1(C(=O)O)CCCCC1; Nle = CCCC[C@H](N)C(=O)O; Ac5c = NC1(C(=O)O)CCCC1; Aib = CC(C)(N)C(=O)O"}
{"compound": "CCCC[C@H](NC(=O)[C@H](C)NC(=O)[C@@H](NC(=O)[C@H](CO)NC(=O)[C@H](Cc1ccc(O)cc1)NC(=O)[C@H](CC(=O)O)NC(=O)[C@H](CO)NC(=O)[C@@H](NC(=O)[C@H](Cc1ccccc1)NC(=O)[C@@H](NC(=O)CNC(=O)[C@@H]1CCCN1C(=O)C(C)(C)NC(=O)CCc1ccc(O)cc1)[C@@H](C)O)[C@@H](C)CC)[C@@H](C)CC)C(=O)N[C@@H](CC(=O)O)C(=O)N[C@@H](CCCCN)C(=O)N[C@H](C(=O)N[C@@H](Cc1c[nH]cn1)C(=O)N[C@@H](CCC(N)=O)C(=O)N[C@@H](CCC(N)=O)C(=O)N[C@@H](CC(=O)O)C(=O)N[C@@H](Cc1ccccc1)C(=O)N[C@H](C(=O)N[C@@H](CC(N)=O)C(=O)N[C@@H](Cc1c[nH]c2ccccc12)C(=O)N[C@@H](CC(C)C)C(=O)N[C@@H](CC(C)C)C(=O)N[C@@H](C)C(=O)N[C@@H](CCC(N)=O)C(=O)N[C@@H](CCCCN)C(N)=O)C(C)C)[C@@H](C)CC", "note": "[Example 9, (4Hppa^1, Aib^2, hPro^3, Nle^14)hGIP(1-30)-NH2] (Desaminotyrosyl-[Aib]PGTFISDYSIA[Nle]DKIHQQDFVNWLLAQK-NH2)", "values": [{"measurement": "half-life", "setting": "[1]", "result": 14, "unit": "h"}, {"measurement": "half-life", "setting": "[2]", "result": 26.5, "unit": "h"}]}
{"compound": "CC[C@H](C)[C@H](NC(=O)[C@H](CCCCN)NC(=O)[C@H](CC(=O)O)NC(=O)[C@H](CCSC)NC(=O)[C@H](C)NC(=O)[C@@H](NC(=O)C1(NC(=O)[C@H](Cc2ccc(O)cc2)NC(=O)[C@H](CC(=O)O)NC(=O)[C@H](CO)NC(=O)[C@@H](NC(=O)[C@H](Cc2ccccc2)NC(=O)[C@@H](NC(=O)CNC(=O)[C@H](CCC(=O)O)NC(=O)C(C)(C)NC(=O)[C@@H](N)Cc2cscn2)[C@@H](C)O)[C@@H](C)CC)CCCC1)[C@@H](C)CC)C(=O)N[C@@H](Cc1c[nH]cn1)C(=O)N[C@@H](CCC(N)=O)C(=O)N[C@@H](CCC(N)=O)C(=O)N[C@@H](CC(=O)O)C(=O)N[C@@H](Cc1ccccc1)C(=O)N[C@H](C(=O)N[C@@H](CC(N)=O)C(=O)N[C@@H](Cc1c[nH]c2ccccc12)C(=O)N[C@@H](CC(C)C)C(=O)N[C@@H](CC(C)C)C(=O)N[C@@H](C)C(=O)N[C@@H](CCC(N)=O)C(=O)N[C@@H](CCCCN)C(=O)NCC(=O)N[C@@H](CCCCN)C(=O)N[C@@H](CCCCN)C(=O)N[C@@H](CC(N)=O)C(=O)N[C@@H](CC(=O)O)C(=O)N[C@@H](Cc1c[nH]c2ccccc12)C(=O)N[C@@H](CCCCN)C(=O)N[C@@H](Cc1c[nH]cn1)C(=O)N[C@@H](CC(N)=O)C(=O)N[C@H](C(=O)NC1(C(=O)N[C@@H](CCC(N)=O)C(=O)O)CCCC1)[C@@H](C)CC)C(C)C", "note": "[Example 35, (Taz^1, Aib^2, A5c^11, 41)hGIP(1-42)-OH]", "values": [{"measurement": "half-life at 0.1 mg/ml", "setting": "[1]", "result": 50.6, "unit": "h"}, {"measurement": "half-life at 0.1 mg/ml", "setting": "[2]", "result": 74.5, "unit": "h"}, {"measurement": "Ki", "setting": "[3]", "result": 3.28, "unit": "nM"}]}
{"compound": "Desaminotyrosyl-A[Hyp]GTF[Ac6c]SDYSIAMDKIHQQDFVNWLLAQKGKKNDWKHNITQ [Example 7, (4Hppa^1, 4Hyp^3, A6c^7)hGIP(1-42)-OH]", "values": [{"measurement": "half-life at 0.1 mg/ml", "setting": "[1]", "result": 6.8, "unit": "h"}, {"measurement": "half-life at 0.1 mg/ml", "setting": "[2]", "result": 38.5, "unit": "h"}, {"measurement": "Ki", "setting": "[3]", "result": 251, "unit": "nM"}]}
{"compound": "CC[C@H](C)[C@H](NC(=O)[C@H](CCCCN)NC(=O)[C@H](CC(=O)O)NC(=O)[C@H](CCSC)NC(=O)[C@H](C)NC(=O)[C@@H](NC(=O)C1(NC(=O)[C@H](Cc2ccc(O)cc2)NC(=O)[C@H](CC(=O)O)NC(=O)[C@H](CO)NC(=O)[C@@H](NC(=O)[C@H](Cc2ccccc2)NC(=O)[C@@H](NC(=O)CNC(=O)[C@H](CCC(=O)O)NC(=O)C(C)(C)NC(=O)[C@@H](N)Cc2ccncc2)[C@@H](C)O)[C@@H](C)CC)CCCC1)[C@@H](C)CC)C(=O)N[C@@H](Cc1c[nH]cn1)C(=O)N[C@@H](CCC(N)=O)C(=O)N[C@@H](CCC(N)=O)C(=O)N[C@@H](CC(=O)O)C(=O)N[C@@H](Cc1ccccc1)C(=O)N[C@H](C(=O)N[C@@H](CC(N)=O)C(=O)N[C@@H](Cc1c[nH]c2ccccc12)C(=O)N[C@@H](CC(C)C)C(=O)N[C@@H](CC(C)C)C(=O)N[C@@H](C)C(=O)N[C@@H](CCC(N)=O)C(=O)N[C@@H](CCCCN)C(=O)NCC(=O)N[C@@H](CCCCN)C(=O)N[C@@H](CCCCN)C(=O)N[C@@H](CC(N)=O)C(=O)N[C@@H](CC(=O)O)C(=O)N[C@@H](Cc1c[nH]c2ccccc12)C(=O)N[C@@H](CCCCN)C(=O)N[C@@H](Cc1c[nH]cn1)C(=O)N[C@@H](CC(N)=O)C(=O)N[C@H](C(=O)NC1(C(=O)N[C@@H](CCC(N)=O)C(=O)O)CCCC1)[C@@H](C)CC)C(C)C", "note": "[Example 33, (4-Pal^1, Aib^2, A5c^11, 41)hGIP(1-42)-OH]", "values": [{"measurement": "half-life at 0.1 mg/ml", "setting": "[1]", "result": 15.5, "unit": "h"}, {"measurement": "half-life at 0.1 mg/ml", "setting": "[2]", "result": 32.8, "unit": "h"}, {"measurement": "Ki", "setting": "[3]", "result": 8.14, "unit": "nM"}]}
{"compound": "CCCC[C@H](NC(=O)[C@H](C)NC(=O)[C@@H](NC(=O)C1(NC(=O)[C@H](Cc2ccc(O)cc2)NC(=O)[C@H](CC(=O)O)NC(=O)[C@H](CO)NC(=O)[C@@H](NC(=O)[C@H](Cc2ccccc2)NC(=O)[C@@H](NC(=O)CNC(=O)[C@H](CCC(=O)O)NC(=O)C(C)(C)NC(=O)[C@@H](N)Cc2ccc(CN)cc2)[C@@H](C)O)[C@@H](C)CC)CCCC1)[C@@H](C)CC)C(=O)N[C@@H](CC(=O)O)C(=O)N[C@@H](CCCCN)C(=O)N[C@H](C(=O)N[C@@H](Cc1c[nH]cn1)C(=O)N[C@@H](CCC(N)=O)C(=O)N[C@@H](CCC(N)=O)C(=O)N[C@@H](CC(=O)O)C(=O)N[C@@H](Cc1ccccc1)C(=O)N[C@H](C(=O)N[C@@H](CC(N)=O)C(=O)N[C@@H](Cc1c[nH]c2ccccc12)C(=O)N[C@@H](CC(C)C)C(=O)N[C@@H](CC(C)C)C(=O)N[C@@H](C)C(=O)N[C@@H](CCC(N)=O)C(=O)N[C@@H](CCCCN)C(=O)NCC(=O)N[C@@H](CCCCN)C(=O)N[C@@H](CCCCN)C(=O)N[C@@H](CC(N)=O)C(=O)N[C@@H](CC(=O)O)C(=O)N[C@@H](Cc1c[nH]c2ccccc12)C(=O)N[C@@H](CCCCN)C(=O)N[C@@H](Cc1c[nH]cn1)C(=O)N[C@@H](CC(N)=O)C(=O)N[C@H](C(=O)N[C@H](C(=O)N[C@@H](CCC(N)=O)C(=O)O)[C@@H](C)O)[C@@H](C)CC)C(C)C)[C@@H](C)CC", "note": "[Example 21, (4NH2CH2-Phe^1, Aib^2, A5c^11, Nle^14)hGIP(1-42)-OH]", "values": [{"measurement": "half-life at 0.1 mg/ml", "setting": "[1]", "result": 6, "unit": "h"}, {"measurement": "half-life at 0.1 mg/ml", "setting": "[2]", "result": "> 74", "unit": "h"}, {"measurement": "Ki", "setting": "[3]", "result": 95, "unit": "nM"}]}
{"compound": "[Tyr(3-OMe)][Aib]EGTFISDY[Ac5c]IA[Ac5c]DKIHQQDFVNWLLAQKGKKNDWKHNI[Ac5c]QH-OH [Example 75, (3MeO-Tyr^1, Aib^2, A5c^11, 14, His^43)hGIP(1-43)-OH]", "values": [{"measurement": "half-life", "setting": "[1]", "result": 18.6, "unit": "h"}, {"measurement": "half-life", "setting": "[2]", "result": "> 60", "unit": "h"}]}
{"compound": "CC[C@H](C)[C@H](NC(=O)[C@H](CO)NC(=O)[C@H](Cc1ccc(O)cc1)NC(=O)[C@H](CC(=O)O)NC(=O)[C@H](CO)NC(=O)C1(NC(=O)[C@H](Cc2ccccc2)NC(=O)[C@@H](NC(=O)CNC(=O)[C@H](CCC(=O)O)NC(=O)C(C)(C)NC(=O)CCc2ccc(O)cc2)[C@@H](C)O)CCCC1)C(=O)N[C@@H](C)C(=O)N[C@@H](CCSC)C(=O)N[C@@H](CC(=O)O)C(=O)N[C@@H](CCCCN)C(=O)N[C@H](C(=O)N[C@@H](Cc1c[nH]cn1)C(=O)N[C@@H](CCC(N)=O)C(=O)N[C@@H](CCC(N)=O)C(=O)N[C@@H](CC(=O)O)C(=O)N[C@@H](Cc1ccccc1)C(=O)N[C@H](C(=O)N[C@@H](CC(N)=O)C(=O)N[C@@H](Cc1c[nH]c2ccccc12)C(=O)N[C@@H](CC(C)C)C(=O)N[C@@H](CC(C)C)C(=O)N[C@@H](C)C(=O)N[C@@H](CCC(N)=O)C(=O)N[C@@H](CCCCN)C(N)=O)C(C)C)[C@@H](C)CC", "note": "[Example 3, (4Hppa^1, Aib^2, A5c^7)hGIP(1-30)-NH2]", "values": [{"measurement": "Ki", "setting": "[3]", "result": 5, "unit": "nM"}]}
{"compound": "[3Cl-Tyr^1, Aib^2, A5c^11, Cys^43(succinimide-N—(CH2)2—C(O)NH—(CH2)3—O—CH2—CH(20K PEG)-CH2-20K PEG)]hGIP(1-43)-NH2 [Example 102]", "values": [{"measurement": "Ki", "setting": "[3]; membranes of CHO-K1 cells expressing the human recombinant GIP receptor, 0.05 nM [125I]GIP, 100 minutes at 25° C., read-out: Ki", "result": 42.4, "unit": "nM"}]}
{"compound": "[Tic(7-OH)][Aib]EGTFISDY[Ac5c]IAMDKIHQQDFVNWLLAQKGKKNDWKHNITQH-OH [Example 77, (7HO-Tic^1, Aib^2, A5c^11, His^43)hGIP(1-43)-OH]", "values": [{"measurement": "Ki", "setting": "[3]", "result": 4.82, "unit": "nM"}]}
